# Assay results published in patent US7122326B2 (Universite Louis Pasteur, priority 2001, dated 2006).
# “Also recorded” adds a separate entry of the source. Where two headings read alike, the source gives them in different places.
# Key:
# [1] = test system: xanthurenic acid binding site(s); experiment: [3H]-XA binding to synaptic membranes, without ions; parameters: species or system rat; settings: for [^3H]-XA binding displacement, screening: screening at 200 μM concentration
# XA transport system = experiment: XA transport in differentiated NCB-20 cells; format: cell-based
# Experimental: The cell culture was prepared by using a culture dish of NCB-20 cells at 80% confluence. The culture medium was removed and replaced with 10 ml of DMEM supplemented with 10% FCS. Cells were then detached and suspended by repeated passage of the medium through a 2 mm gauge needle. Cells were then counted in a hemocytometer. The final suspension was adjusted to a cell density of 3.10^4 cells/ml in DMEM medium supplemented with 10% FCS and 1 mM cAMP. Petri dishes were seeded with 2 ml of this suspension and incubated at 37° C. in a moisture-saturated CO2 atmosphere. Cells were used four days after inoculation.
# The culture medium of 4-day NCB-20 cell cultures differentiated in cAMP was replaced by one of the buffer solutions described hereinabove (Krebs with or without Na^+, to respectively evaluate Na^+-dependent active transport and passive transport, which occurs mainly through diffusion) according to the type of experiment planned. Culture dishes were placed in a water bath at 37° C. for 10 minutes. The buffer was then replaced by the same buffer solution containing [^3H]-XA and XA at concentrations ranging from […]. [^3H]-XA was present at very low concentration and served only as a tracer of the cold (non-radiolabelled) XA. After 1 minute of incubation, the solutions were aspirated and the cells washed three times for 10 seconds with 1 ml of the same buffer (Krebs with or without Na^+), kept on ice. Active transport requires energy (ATP) and is markedly slowed at temperatures below 37° C. The washed cell layer was frozen in dishes then, the next day, distilled water was added to obtain a solution of cellular debris containing the intracellular radiolabel ([^3H]-XA). Freezing facilitated homogenization by repeated passage of the solution through a pipette. A 900 μl aliquot was added to scintillation fluid (Rotiszint®, 4 ml). The remainder of the solution was sampled to assay protein by the BCA method (Uptima). The radioactivity measured in the scintillation counter was converted by means of a suitable calibration curve into picomoles of XA taken up by the cells per mg of protein.
# For each incubation time, transport was measured on nine dishes of NCB-20 cells with Na^+ and without Na^+. Ten different time points were studied: 0-10-30 seconds and 1, 2, 3, 5, 8, 10, 12 minutes. Four different experiments were carried out.
# For each XA concentration, XA transport was measured on nine dishes of NCB-20 cells with Na^+ and nine dishes without Na^+. Seven different concentrations were tested: 1-5-12.5-25-50-100-200 μM. Four independent experiments were carried out.
# Four milliliters of scintillator were added to the tubes containing 900 μl of the cell suspension obtained. The control tube contained 900 μl of doubly-distilled water, and the tubes used to measure specific activity contained 10 μl of the radioactive solutions used as reagent during the experiment and 890 μl of doubly-distilled water. The tubes were closed, vortexed and left overnight at 4° C. before being counted in the scintillation counter. This count measures intracellular radioactivity which is directly proportional to the quantity of XA that entered the cell through passive or active transport. To calculate the amount of active transport, passive transport (Krebs without Na^+) is simply subtracted from total transport (Krebs with Na^+).
# Other endogenous molecules which might be transported by the XA transporter were tested. […] The results are shown in the histogram in FIG. 34 as the percentage entering the cells relative to transport in the presence of radiolabelled XA alone (=100%).
# dopaminergic neurons = experiment: Residual dopamine content after 6-OHDA lesion; format: in vivo, rat
# XA release in the PFC = experiment: XA release in prefrontal cortex, in vivo microdialysis; parameters: species or system rat
# Experimental: Male Wistar rats weighing 350–400 g were used for the experiments. Animals were housed individually in plastic cages with a light/dark cycle of 7 a.m./7 p.m. and 7 p.m./7 a.m. Animals had access to food and water ad libitum. Animal experiments were conducted in strict accordance with the requirements of the European Directive of 24 Nov. 1986 (86/609/EEC).
# The experiments were carried out using an L-shaped cannula with a 4 mm tip. A polycarbonate-polyether dialysis membrane (500 μm) with a 20 Kda cutoff was used. The dialysis membrane was inserted in the prefrontal cortex (PFC) while one of the tips of the bipolar stimulation electrode was implanted in the PFC and the other in the VTA. The procedure was performed under ketamine anesthesia.
# The experiments were carried out in conscious animals, 24 to 72 hours after the surgery. The perfusion medium had the following composition: 147 mM NaCl, 1.2 mM CaCl2, 1.2 mM MgCl2, and 4.0 mM KCl, pH 6.5. In the case of stimulations at high potassium concentrations, sodium ion concentrations were lowered to the same value. In the case of stimulations in the absence of calcium ions, 2.0 mM EGTA was added to the dialysis medium. Dialysates were collected at a rate of 2 μl/min, every 5 minutes, and immediately stored in liquid nitrogen up to analysis.
# These two compounds were quantitatively determined by HPLC chromatography with electrochemical detection. The chromatographic system consisted of a 25 cm×4.6 mm Hypersyl C18 column, maintained at constant temperature. The mobile phase was 0.05 M NaH2PO4 buffer+0.1 mM EDTA and 6% methanol. Peaks were identified by comparison with the retention times measured on calibration standard solutions.
# The VTA was stimulated for a period of 10 minutes, with bursts of thirty 0.5-msec pulses for 100 millisec, intensity 100 or 200 μA and at a frequency of 25 Hz.
# rat = experiment: Rotations in rats with unilateral 6-OHDA lesions; format: in vivo; settings: 6-OHDA-lesioned rats, four weeks after lesion; apomorphine s.c. (0.1 and 1.0 mg/kg)
# [2] = target: xanthurenic acid binding site(s); experiment: Effect of ions on xanthurenic acid binding to synaptic membranes; parameters: species or system rat; settings: read-out: EC50 of ions on xanthurenic acid binding
# [3] = target: xanthurenic acid binding site(s); experiment: [3H]-XA binding to synaptic membranes in the presence of copper ions; parameters: species or system rat; settings: read-out: EC50 (50% effective concentration) on XA binding; Tris maleate pH 6.5, room temperature, 400 nM [^3H]-XA (+20 μM xanthurenic acid) (FIG. 17)
# [4] = unilateral 6-OHDA lesion of VTA and SNc, ±SEM (n=3)
molecule,measurement,setting,value
"Nc1c(O)cccc1C(=O)CC(N)C(=O)O (racemic) [3OH-D,L-kynurenin]","[^3H]-XA binding displacement, screening",[1],None of these compounds caused significant displacement
O=CC[C@@H](O)[C@H](O)[C@H](O)CO [2-deoxyglucose],decrease in XA transport,XA transport system; cellular energy production blocked (FIG. 34),~50%
Nc1c(O)cccc1C(=O)O [3-hydroxyanthranilic acid],"[^3H]-XA binding displacement, screening",[1],None of these compounds caused significant displacement
N[C@@H](Cc1c[nH]c2ccc(O)cc12)C(=O)O [5-hydroxy-L-tryptophan],"[^3H]-XA binding displacement, screening",[1],None of these compounds caused significant displacement
"Br.NCCc1cc(O)c(O)cc1O [6-OHDA, 6-hydroxydopamine hydrobromide]","residual dopamine content, damaged VTA —SNc",dopaminergic neurons; [4],32±31 pmoles/g of wet tissue
same,"residual dopamine content, damaged striatum",dopaminergic neurons; [4],261±123 pmoles/g of wet tissue
same,"change of dopamine content, damaged versus intact striatum","dopaminergic neurons; unilateral 6-OHDA lesion, p=0.0033",−98%
same,"change of dopamine content, damaged versus intact VTA —SNc","dopaminergic neurons; unilateral 6-OHDA lesion, p=0.0157",−95%
[Cl-].[K+] [KCl],"XA release in the PFC extracellular medium, % of the baseline value","XA release in the PFC; 100 mM KCl in the dialysis probe for 5 minutes, after 40 minutes",250%
Nc1ccccc1C(=O)C[C@H](N)C(=O)O [L-kynurenin],"[^3H]-XA binding displacement, screening",[1],None of these compounds caused significant displacement
N[C@@H](Cc1c[nH]c2ccccc12)C(=O)O [L-tryptophan],inhibition of cellular transport of XA,XA transport system,good inhibitors; also recorded: inhibit this transport
N[C@@H](Cc1ccc(O)cc1)C(=O)O [L-tyrosine],inhibition of cellular transport of XA,XA transport system; NCB-20 cells (FIG. 34),good inhibitors
same,inhibition of cellular transport of XA,"XA transport system; NCB-20 cells (FIG. 34), listed as tyrosine",inhibit this transport
Nc1ncnc2nc[nH]c12 [adenine],affinity for the xanthurenic acid site / inhibition of tritiated XA binding,[1],showed significant affinity for the xanthurenic acid site and inhibited the binding of tritiated XA
Nc1ncnc2c1ncn2[C@@H]1O[C@H](COP(=O)(O)OP(=O)(O)O)[C@@H](O)[C@H]1O [adenosine diphosphate],affinity for the xanthurenic acid site / inhibition of tritiated XA binding,[1],showed significant affinity for the xanthurenic acid site and inhibited the binding of tritiated XA
Nc1ncnc2c1ncn2[C@@H]1O[C@H](COP(=O)(O)OP(=O)(O)OP(=O)(O)O)[C@@H](O)[C@H]1O [adenosine triphosphate],affinity for the xanthurenic acid site / inhibition of tritiated XA binding,[1],showed significant affinity for the xanthurenic acid site and inhibited the binding of tritiated XA
Nc1ncnc2c1ncn2[C@@H]1O[C@H](CO)[C@@H](O)[C@H]1O [adenosine],affinity for the xanthurenic acid site / inhibition of tritiated XA binding,[1],showed significant affinity for the xanthurenic acid site and inhibited the binding of tritiated XA
CN1CCc2cccc3c2[C@H]1Cc1ccc(O)c(O)c1-3 [apomorphine],number of controlateral rotations,rat,130±45 turns/15 minutes
"[Cl][Cu][Cl] [copper ions, CuCl2]",EC50,"[2]; 50 mM Tris maleate pH 6.5, 0° C., 200 nM [^3H]-XA (FIG. 14)",~100 µM
same,EC50,[3],33.4 µM
O=C(O)c1cc(=O)c2ccccc2[nH]1 [kynurenic acid],"[^3H]-XA binding displacement, screening",[1],no displacement of [^3H]-XA from its binding site(s) but rather a potentiation of this binding
same,inhibition of cellular transport of XA,XA transport system; NCB-20 cells (FIG. 34),good inhibitors
O=C(O)c1ccccn1 [picolinic acid],"[^3H]-XA binding displacement, screening",[1],None of these compounds caused significant displacement
NC1=N[C@H](O)[C@H]2[C@H]3O[C@]4(O)O[C@@H]([C@@H](O)[C@@]2(N1)[C@@H]4O)[C@]3(O)CO [tetrodotoxin],XA release in PFC induced by electrical stimulation of the VTA,"XA release in the PFC; rat, in vivo",completely blocked
"[Cl-].[Cl-].[Zn+2] [zinc ions, ZnCl2]",EC50,[2]; pH 6.5,~500 µM
same,potentiation of XA transport,XA transport system; ions present in the medium (FIG. 34),highly significant potentiation
veratrine,"XA release in the PFC, % of baseline","XA release in the PFC; 50 μM in the probe for 20 minutes, after 20 minutes",approximately 600%
